PMC11277056, “Effects of SRI-32743, a Novel Quinazoline Structure-Based Compound, on HIV-1 Tat and Cocaine Interaction with Norepinephrine Transporter” (International Journal of Molecular Sciences, 2024)

How the values were obtained:
Assay type in all cases: cell-based
[1] = molecular target: T1, norepinephrine transporter (hNET) (Homo sapiens, UniProt P23975); assay: [3H]MPP+ preloading and efflux in CHO cells expressing WT hNET
T1 construct: gene SLC6A2; WT hNET

[2] = molecular target: T1, norepinephrine transporter (hNET); assay: [3H]Nisoxetine competition binding in intact CHO-K1 cells; also [3H]DA uptake inhibition (IC50 […]) and slowed [3H]Nisoxetine dissociation
[3] = molecular target: T2, dopamine transporter (hDAT) (Homo sapiens, UniProt Q01959); assay: [3H]DA uptake inhibition in CHO-K1 cells expressing WT hDAT
T2 construct: gene SLC6A3; WT hDAT
T2 sequence (Q01959 whole entry): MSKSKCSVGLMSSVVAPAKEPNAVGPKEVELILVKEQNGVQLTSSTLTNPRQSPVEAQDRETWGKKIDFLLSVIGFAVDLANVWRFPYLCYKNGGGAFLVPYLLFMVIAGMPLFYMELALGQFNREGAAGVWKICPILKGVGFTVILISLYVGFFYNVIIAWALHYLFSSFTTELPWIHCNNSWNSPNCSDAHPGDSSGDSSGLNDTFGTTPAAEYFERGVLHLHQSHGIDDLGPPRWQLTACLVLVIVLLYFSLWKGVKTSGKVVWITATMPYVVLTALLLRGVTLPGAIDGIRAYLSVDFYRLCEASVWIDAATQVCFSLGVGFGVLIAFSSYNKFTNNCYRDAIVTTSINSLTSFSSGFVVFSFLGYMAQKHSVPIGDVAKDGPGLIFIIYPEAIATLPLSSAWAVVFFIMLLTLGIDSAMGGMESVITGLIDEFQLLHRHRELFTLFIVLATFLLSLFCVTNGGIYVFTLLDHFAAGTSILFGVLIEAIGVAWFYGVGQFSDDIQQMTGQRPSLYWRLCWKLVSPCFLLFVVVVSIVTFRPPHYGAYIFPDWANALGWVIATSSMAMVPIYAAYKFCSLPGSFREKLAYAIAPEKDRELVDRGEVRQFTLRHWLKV

T1 sequence (P23975 whole entry): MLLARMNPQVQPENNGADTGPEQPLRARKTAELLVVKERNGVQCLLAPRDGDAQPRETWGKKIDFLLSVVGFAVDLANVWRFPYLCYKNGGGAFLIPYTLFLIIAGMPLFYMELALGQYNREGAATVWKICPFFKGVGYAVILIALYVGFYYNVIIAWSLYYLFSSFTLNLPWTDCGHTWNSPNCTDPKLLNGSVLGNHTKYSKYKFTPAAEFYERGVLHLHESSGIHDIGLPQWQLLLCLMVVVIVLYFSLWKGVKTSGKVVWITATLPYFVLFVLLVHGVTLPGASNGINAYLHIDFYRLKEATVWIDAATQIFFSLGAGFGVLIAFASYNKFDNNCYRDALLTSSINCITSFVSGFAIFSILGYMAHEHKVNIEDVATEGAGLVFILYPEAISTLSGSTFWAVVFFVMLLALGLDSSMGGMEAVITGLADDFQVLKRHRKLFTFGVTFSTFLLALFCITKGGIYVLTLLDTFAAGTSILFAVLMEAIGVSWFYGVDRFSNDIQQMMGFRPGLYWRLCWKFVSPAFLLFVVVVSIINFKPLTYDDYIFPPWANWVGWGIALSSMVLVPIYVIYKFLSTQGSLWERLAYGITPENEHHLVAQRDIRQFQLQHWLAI

| Compound | [3H]MPP+ preloading and efflux in CHO cells expressing WT hNET [1] | IC50 [2] | IC50 [3] |
| --- | --- | --- | --- |
| C[n+]1ccc(-c2ccccc2)cc1 [MPP+, N-methyl-4-phenylpyridinium] | decreased both basal [^3H]DA and [^3H]MPP^+ efflux via WT hNET compared with the control | – | – |
| SRI-32743 | – | 26.4 ± 5.17 µM | 8.16 ± 1.16 µM |
